Assay results taken from patent US20220136033A1, “Kits and Assays for Determining Bacterial Cell Viability” (priority 2020, published 2022).
Where “and” joins values, the source holds several entries; their conditions need not be identical. Equal values may be shown once. Where a name gives a salt, the structure may show the parent alone.

Tests used:
bacteria = test: Chemical treatments mildly affecting membrane permeability, EB staining; format: cell-based; conditions: 20 mM EDTA, 0.1-0.5% Triton X100, 0.12 M guanidine HCl or 0.1% SDS
Source text: All cell viability assays have limitations. The CFU method can overestimate the proportion of dead cells because any viable cells that are unable to divide, or dividing more slowly than wild-type, fail to form visible colonies and will be scored as dead. Membrane exclusion dyes, such as EB and propidium iodine, can underestimate the proportion of dead cells as recently dead cells may not have sufficiently compromised membranes to allow the dye to enter the cell. […] How other viability methods score dying cells also varies and it is often difficult to accurately quantitate, or distinguish, a dying cell population (4). For membrane-exclusion dyes, the concern is whether the dye enters cells with mildly compromised membranes that may be dying, but not dead.

[1] = Excitation and emission spectra comparison; format: physicochemical; conditions: approx.
Source text: FIG. 11. The excitation and emission spectra for erythrosin B and propidium iodide, another cell viability dye that works by membrane exclusion, were compared. Erythrosin B has a narrow range for both excitation (approx. 480-550 nm) and emission (approx. 540-610 nm) compared to propidium iodide (excitation of approx. 300-350 nm and 475-575 nnm; emission of approx. 570-750 nm).
Many experiments involving fluorescent molecules, including viability assays, try to multiplex (use more than one fluorescent molecule at a time (e.g., FIG. 12)). A key limitation to the number of different fluorescent molecules that can be simultaneously used is the width of the region(s) of wavelengths for excitation and for emission. By having narrow ranges for both excitation and emission this allows erythrosin B to be more flexible than propidium iodide and potentially be paired with a wider variety of other fluorescent probes.

[2] = system: Staphylococcus epidermidis; test: Flow cytometry viability comparison, propidium iodide vs EB-based kit; format: cell-based
Protocol: (§1) Determining bacterial cell viability by a different membrane exclusion dye (propidium iodide, PI) is not reliable for certain bacteria species and under certain growth conditions (10,11). Using an EB dye and adsorbent resin binding step (hereafter referred to as EB-based Kit), it is possible to reliably determine cell viability in these bacteria species (FIG. 9A-L). In these experiments, overnight cultures of Streptococcus mutans (FIG. 9A-F) and Staphylococcus epidermidis (FIG. 9G-L) were grown in Luria Broth. A portion of each culture was killed by treating with ethanol (50% ethanol, for 30 minutes at 30° C.). Overnight cells and ethanol-treated cells were centrifuged (10,000 g for 6 minutes) and then resuspended in phosphate buffered saline. Both cell suspensions were then sonicated to break apart any clusters (10% for 10 seconds). An approximately equal amount of the untreated, living overnight cells and the ethanol-treated, killed cells were mixed to generate a mixed population sample. 100 microliters of each sample (overnight culture, live/dead mixture, and killed cells) were incubated with 100 microliters of an EB-dye solution for 5 minutes. After incubation, 100 microliters of the adsorbent solution was added and gently agitated for 5 minutes on a vortexer. Following agitation, the tubes were left for 5 minutes to allow the adsorbent to settle and 200 microliters of the liquid solution above the adsorbent was transferred to a new tube. These samples were brought up to 1 mL in phosphate buffered saline. For propidium iodide staining, 40 microliters of the sonicated samples (overnight culture, live/dead mixture, and killed cells) were transferred to a fresh tube and brought up to 1 mL in phosphate buffered saline. 1 microliter of propidium iodide was added to each tube and incubated for 15 minutes before analyzing all samples by flow cytometry (FIGS. 9A-F for Streptococcus mutans and FIGS. 9G-L for Staphylococcus epidermidis).

Streptococcus mutans = test: as above; format: cell-based; conditions: >90% alive by CFU, 30,000 events
Protocol: as §1

[3] = system: Gram-negative and Gram-positive bacteria; test: Bright-field microscopy viability staining with erythrosin B; format: cell-based
Protocol: Growth and treatments of bacteria. To prepare cells for viability studies, 3 mL overnight bacterial cultures were grown in Luria Broth. Fresh 5 mL cultures were inoculated from the overnight cultures and grown for 1 to 4 hours until reaching an OD600 of 0.4-1.1. Cells were harvested by centrifugation (15,000 g for 4 minutes) and then resuspended in phosphate buffered saline (PBS). A portion of these cells were kept at room temperature (untreated controls), while the remainder were transferred into separate microfuge tubes for different treatments. For heat shock treatment, microfuge tubes were placed at 70° C. for 30 minutes before returning to room temperature. For ethanol treatment, 100% ethanol (Decon Labs, Inc., PA, USA product number 2716) was added to cell suspensions to a final concentration of 30%. Cell mixtures were incubated at 37° C. for 30 minutes, centrifuged, and then the pellet was resuspended in PBS. For CaCl2 treatment, cells were centrifuged, and the pellet was resuspended in 1 mL of ice-cold 100 mM CaCl2 and left on ice for 45 minutes. After this initial incubation, the cells were centrifuged and resuspended in 1004 of 100 mM CaCl2.
Assaying bacterial viability. For bright-field microscopy assays, 104 of each cell suspension (untreated, heat-shocked, ethanol-treated and CaCl2-treated) was mixed with 104 of 0.08% erythrosin B and incubated for 5 minutes at room temperature. For CaCl2-treated cells, mixtures were placed at 42° C. for 60 seconds before returning to room temperature for the remainder of the incubation. 5 μl of the incubated dye:cell mixtures were taken to prepare wet mounts. Imaging was performed on a […] Olympus BX61 microscope using an UPlanSApo 100X/1.14 NA oil objective lens with an Olympus SC10 camera.

[4] = Concentration of filtered EB stock solution by A530 reference; format: physicochemical; conditions: 0.1% (w/v) preparation in 10 mM Tris pH 7.5, undissolved dye removed by 0.22 μm filter
Protocol: Erythrosin B (EB, Sigma, Mo., USA 200964-5G) was prepared by dissolving powder in 10 mM Tris pH 7.5. Published values of the solubility of EB in aqueous solutions vary and may result from different preparations of the dye and from which supplier it is purchased. A small amount of undissolved dye was present when preparing a 0.1% (w/v) solution. This stock solution was filtered through a 0.22 μm filter to remove undissolved dye. To determine the concentration of this stock solution a fresh, dilute EB solution was prepared in which all dye fully dissolved after 10 minutes of stirring. This dilute solution was serially diluted and A530 readings (the wavelength of maximal absorbance for EB) were collected generating a reference relating EB dye concentration to A530. The filtered, stock solution of EB was then serially diluted, and absorbance values of the dilutions were compared to the reference absorbance values for the dilute solution. The stock EB concentration was determined to be 0.08% and is used throughout this work.

Row | Molecule | increase in dye-positive live cells after chemical treatment (bacteria) | emission range [1] | excitation range [1] | other results
1 | CCCCCCCCCCCCOS(=O)(=O)[O-].[Na+] [SDS] | did not result in an observable increase in dye-positive live cells | – | – | –
2 | O=C(O)CN(CCN(CC(=O)O)CC(=O)O)CC(=O)O [EDTA] | did not result in an observable increase in dye-positive live cells | – | – | –
3 | CC[N+](C)(CC)CCC[n+]1c(-c2ccccc2)c2cc(N)ccc2c2ccc(N)cc21.[I-].[I-] [PI, propidium iodide] | – | 570-750 nm | 300-350 nm and 475-575 nm | cells dead, Live/Dead Mixture sample ([2]; near-equal mixture of live and ethanol-killed cells): 95%; cells dye-positive (dead), overnight culture ([2]; overnight culture, >90% alive by CFU, 30,000 events): ~61%; cells dye-positive (dead), overnight culture (Streptococcus mutans): virtually all cells
4 | Triton X100 | did not result in an observable increase in dye-positive live cells | – | – | –
5 | N=C(N)N [guanidine HCl] | did not result in an observable increase in dye-positive live cells | – | – | –
6 | O.O=C([O-])c1ccccc1-c1c2cc(I)c(=O)c(I)c-2oc2c(I)c([O-])c(I)cc12.[Na+].[Na+] [EB, Erythrosin B] | – | 540-610 nm | 480-550 nm | dye-positive cells after CaCl2 treatment ([3]; CaCl2-treated cells): not all treated cells were dye positive; time until clear differences between dye-negative and dye-positive cells were visible ([3]; dye incubation, bright-field): ≤ 5 min; dye-positive cells after heat shock or ethanol treatment ([3]; heat shocked and ethanol-treated organisms): virtually all treated cells were dye-positive; healthy cells dye-positive by bright-field microscopy when incubated with EB ([3]; untreated cells, all species examined): < 3%; stock EB concentration [4]: 0.08%
